Several values for one entry are separate records, joined by “and”; a condition that tells them apart may be missing. Equal values may be shown once. Entries after “also recorded” stand apart in the source; their conditions may differ. Read-outs that look alike come from different tables or passages of the source.
Assays:
[1] = system: Salmonella typhimurium tester strains; assay: Ames Salmonella dark mutagenicity test, overall assessment; assay type: cell-based; settings: two-fold or greater increase in revertants above background and dose dependence
Protocol: A brief description for each procedure is given here. […] TA97a, TA98, TA1537 and TA1538 are frameshift tester strains. TA100 and TA102 are base-substitution tester strains.
This served as the background controls.
For all experiments, the pre-incubation procedure was used.

[2] = system: Salmonella tester strain TA1538
Protocol: (§1) In this example the compounds of the present invention are tested for their dark mutagenicity using an Ames assay. The procedures used for the Salmonella mutagenicity test as described in detail by Maron and Ames were followed exactly. Maron, D. M. and B. N. Ames, Mutation Research 113: 173 ( 1983). A brief description for each procedure is given here. The tester strains TA97a, TA98, TA100, TA102, TA1537 and TA1538 were obtained from Dr. Ames. TA97a, TA98, TA1537 and TA1538 are frameshift tester strains. TA100 and TA102 are base-substitution tester strains. Upon receipt each strain was cultured under a variety of conditions to confirm the genotypes specific to the strains.
(§2) The first tests done with the strains were to determine the range of spontaneous reversion for each of the strains. With each mutagenicity experiment the spontaneous reversion of the tester strains to histidine independence was measured and expressed as the number of spontaneous revertants per plate. This served as the background controls.
(§3) For all experiments, the pre-incubation procedure was used. In this procedure one vial of each tester strain was thawed and 20 μL of this culture was added to 6 mL of Oxoid Nutrient Broth #2. This solution was allowed to shake for 10 hours at 37° C. In the pre-incubation procedure, 0.1 mL of this overnight culture was added to each of the required number of sterile test tubes. To half of the tubes 0.5 mL of a 10% S-9 solution containing Aroclor 1254 induced rat liver extract (Molecular Toxicology Inc., Annapolis, Md.), and MgCl2, KCl, glucose-6-phosphate, NADP, and sodium phosphate buffer (Sigma, St. Louis, Mo.) were added. To the other half of the tubes 0.5 mL of 0.2M sodium phospate buffer, pH 7.4, was used in place of the S-9 mixture (the—S9samples). Finally 0.1 mL of the test solution containing either 0, 0.1, 0.5, 1, 5, 10, 50, 100, 250, or 500 μg/mL of the test compound was added. The 0.7 mL mixture was vortexed and then pre-incubated while shaking for 20 minutes at 37° C. After shaking, 2 mL of molten top agar supplemented with histidine and biotin were added to the 0.7 mL mixture and immediately poured onto a minimal glucose agar plate (volume of base agar was 20 mL). The top agar was allowed 30 minutes to solidify and then the plates were inverted and incubated for 44 hours at 37° C. After incubation the number of revertant colonies on each plate were counted. […] (“n” represents the number of replicates performed for each data point.)

[3] = system: Salmonella tester strain TA1537; assay: Ames test, strain TA1537
Protocol: as §1, §2, §3

p-selectin (GMP140) = assay: GMP-140 (p-selectin) expression on platelets, flow cytometry with CD62; assay type: cell-based, human; settings: 100 μM compound, 5 Joules/cm^2, 5 days storage; FIGS. 21C-24C
Protocol: To measure the effects of the present compounds and methods of decontamination on platelet function using these four indicators, four samples were prepared for each compound tested, two control samples and two containing compound. Three units of human platelets were obtained from the Sacramento Blood Center, Sacramento, Calif. These were each transferred under sterile conditions to 50 ml centrifuge tubes, then aliquots of each unit were transferred into a second set of 50 ml sterile centrifuge tubes. To each centrifuge tube containing platelet concentrate (PC), an aliquot of compound stock was added to reach a final concentration of 100 μM of compound. […] The samples were pipetted gently up and down to mix. Then aliquots (either 3 ml or 8 ml) of each sample was transferred to two sterile Teflon™ Medi-bags™ (American Fluoroseal Co., Silver Springs, Md.) (presently owned by The West Company, Lionville, Pa.). Samples were treated in one of two different sized bags, having either 3 ml or 8 ml capacity. […] For each compound tested, two control samples without compound were prepared by again removing aliquots of platelet concentrate (17 ml if using an 8 ml bag, […] if using a 3 ml bag) from the same one of the first set of 50 ml centrifuge tubes from which the compound sample was drawn, and dividing into Medibags, as before. One of each pair of Medibags containing a compound, and one of each pair of control Medibags, were illuminated for 5 Joules/cm^2 on the device described in Example 1, above. Then all experimental and control Medibags were placed on a platelet shaker for storage for 5 days. The same experiments were repeated several times to obtain more statistically meaningful data, as represented by “n”, the number of data points represented, in the graphs of FIGS. 21-24, discussed below.

[4] = system: Salmonella tester strain TA98; assay: Ames test, strain TA98
Protocol: as §1, §2
For all experiments, the pre-incubation procedure was used. In this procedure one vial of each tester strain was thawed and 20 μL of this culture was added to 6 mL of Oxoid Nutrient Broth #2. This solution was allowed to shake for 10 hours at 37° C. In the pre-incubation procedure, 0.1 mL of this overnight culture was added to each of the required number of sterile test tubes. To half of the tubes 0.5 mL of a 10% S-9 solution containing Aroclor 1254 induced rat liver extract (Molecular Toxicology Inc., Annapolis, Md.), and MgCl2, KCl, glucose-6-phosphate, NADP, and sodium phosphate buffer (Sigma, St. Louis, Mo.) were added. To the other half of the tubes 0.5 mL of 0.2M sodium phospate buffer, pH 7.4, was used in place of the S-9 mixture (the—S9samples). […] The 0.7 mL mixture was vortexed and then pre-incubated while shaking for 20 minutes at 37° C. After shaking, 2 mL of molten top agar supplemented with histidine and biotin were added to the 0.7 mL mixture and immediately poured onto a minimal glucose agar plate (volume of base agar was 20 mL). The top agar was allowed 30 minutes to solidify and then the plates were inverted and incubated for 44 hours at 37° C. After incubation the number of revertant colonies on each plate were counted. […] (“n” represents the number of replicates performed for each data point.)

Row | SMILES | mutagenic response in the Ames assay (in words) [1] | revertant colonies per plate ([3]; TA1537 + S9, 100 μg/plate) | GMP-140 expression, treated sample (PCD) against day 5 untreated control (in words) (p-selectin (GMP140)) | revertant colonies per plate ([4]; TA98 + S9, 10 μg/plate) | revertant colonies per plate ([4]; TA98 + S9, 50 μg/plate) | revertant colonies per plate ([4]; TA98 + S9, 100 μg/plate) | revertant colonies per plate ([4]; TA98 + S9, 250 μg/plate) | revertant colonies per plate ([4]; TA98 − S9, 10 μg/plate) | revertant colonies per plate ([4]; TA98 − S9, 50 μg/plate) | revertant colonies per plate ([4]; TA98 − S9, 100 μg/plate) | revertant colonies per plate ([4]; TA98 − S9, 250 μg/plate) | revertant colonies per plate ([3]; TA1537 + S9, 10 μg/plate) | revertant colonies per plate ([3]; TA1537 + S9, 50 μg/plate) | revertant colonies per plate ([3]; TA1537 + S9, 250 μg/plate) | revertant colonies per plate ([3]; TA1537 − S9, 10 μg/plate) | revertant colonies per plate ([3]; TA1537 − S9, 50 μg/plate) | revertant colonies per plate ([3]; TA1537 − S9, 250 μg/plate) | revertant colonies per plate ([3]; TA1537 − S9, 100 μg/plate) | other results
1 | Cc1oc2c(C)c3oc(=O)cc(C)c3cc2c1CNCCCCN [Compound 6, 4′-(6-amino-2-aza)hexyl-4,5′,8-trimethylpsoralen] | no base substitution mutagenicity; also recorded: frameshift response in TA98 in the presence of S9 at concentrations of 250 μg/plate and above | 20 and 35 | little or no difference | – | – | – | – | – | – | – | – | – | – | – | – | – | – | – | revertant colonies per plate ([2]; TA1538 + S9, 50 μg/plate): 24; revertant colonies per plate ([2]; TA1538 + S9, 100 μg/plate): −2; revertant colonies per plate ([2]; TA1538 + S9, 250 μg/plate): −38; revertant colonies per plate ([2]; TA1538 − S9, 50 μg/plate): 2; revertant colonies per plate ([2]; TA1538 − S9, 100 μg/plate): −18
2 | Cc1oc2c(C)c3oc(=O)cc(C)c3cc2c1CN [AMT, 4′-Aminomethyl-4,5′,8-trimethylpsoralen, reference compound] | showed frameshift mutagenicity at between 5 and 10 μg/plate in TA97a and TA98, at 5 μg/plate in TA1537 and at 1 μg/plate in TA1538; also recorded: no significant base-substitution mutations | 686 and 500 | – | 403 | 620 | 745 | 933 | 20 | 69 | 114 | 112 | 30 | 94 | 3738 | 52 | 2688 | 434 | – | revertant colonies per plate ([4]; TA98 + S9, 0.1 μg/plate): 1; revertant colonies per plate ([4]; TA98 + S9, 0.5 μg/plate): 3; revertant colonies per plate ([4]; TA98 + S9, 1 μg/plate): 21; revertant colonies per plate ([4]; TA98 + S9, 5 μg/plate): 232; revertant colonies per plate ([4]; TA98 − S9, 0.1 μg/plate): 3; revertant colonies per plate ([4]; TA98 − S9, 0.5 μg/plate): 5; revertant colonies per plate ([4]; TA98 − S9, 1 μg/plate): 5; revertant colonies per plate ([4]; TA98 − S9, 5 μg/plate): 16; revertant colonies per plate ([3]; TA1537 + S9, 0.1 μg/plate): 2; revertant colonies per plate ([3]; TA1537 + S9, 0.5 μg/plate): 2; revertant colonies per plate ([3]; TA1537 + S9, 1 μg/plate): 3; revertant colonies per plate ([3]; TA1537 + S9, 5 μg/plate): 22; revertant colonies per plate ([3]; TA1537 − S9, 0.1 μg/plate): 0; revertant colonies per plate ([3]; TA1537 − S9, 0.5 μg/plate): 3; revertant colonies per plate ([3]; TA1537 − S9, 1 μg/plate): 5; revertant colonies per plate ([3]; TA1537 − S9, 5 μg/plate): 44
3 | Cc1cc(=O)oc2c(C)c3oc(COCCN)c(C)c3cc12 [Compound 18, 5′-(4-amino-2-oxa)butyl-4,4′,8-trimethylpsoralen] | only a weak response at high concentrations in the presence of S9 | 26 | notable increase above the control | 8 | 6 | 26 | – | 21 | 303 | 390 | – | 8 | 6 | – | 21 | 303 | – | 390 | revertant colonies per plate ([4]; TA98 + S9, 200 μg/plate): 42; revertant colonies per plate ([4]; TA98 − S9, 200 μg/plate): 225; revertant colonies per plate ([3]; TA1537 + S9, 200 μg/plate): 42; revertant colonies per plate ([3]; TA1537 − S9, 200 μg/plate): 225
4 | Cc1oc2c(C)c3oc(=O)cc(C)c3cc2c1COCCN [Compound 2, 4′-(4-amino-2-oxa)butyl-4,5′,8-trimethylpsoralen] | weak frameshift mutagenicity in the presence of S9 in TA98 and TA1537 | 88 | little or no difference | 24 | 35 | 53 | 69 | 28 | 52 | 39 | 29 | 5 | 40 | 744 | 36 | 282 | 176 | 258 | revertant colonies per plate ([2]; TA1538 + S9, 5 μg/plate): 2; revertant colonies per plate ([2]; TA1538 + S9, 10 μg/plate): 4; revertant colonies per plate ([2]; TA1538 − S9, 5 μg/plate): −8; revertant colonies per plate ([2]; TA1538 − S9, 10 μg/plate): −13; revertant colonies per plate ([4]; TA98 + S9, 500 μg/plate): 63; revertant colonies per plate ([4]; TA98 − S9, 500 μg/plate): 6; revertant colonies per plate ([3]; TA1537 + S9, 500 μg/plate): 395; revertant colonies per plate ([3]; TA1537 − S9, 500 μg/plate): 114

— patent US6544727B1, “Methods and devices for the removal of psoralens from blood products” (Cerus Corporation, priority 1995, dated 2003)
